Results published in ChEMBL document CHEMBL1201862, “PubChem BioAssay data set” (2004).
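Exposure lasted 48 hours, with cells grown in 96-well plates and compounds tested at five concentrations. Here, GI50 denotes the concentration required for 50% inhibition of growth.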 Active and inactive are the calls of the source. Cut-off read from the data, not from the text of the source: active = GI50 up to about 1.1 µM and inactive = higher.

Tests used:
Experiment in all cases: inhibition of tumour cell growth, NCI panel, 48 h
U-251 = tested on: U-251
CAKI-1 = tested on: CAKI-1
HCC 2998 = tested on: HCC 2998
K562 = tested on: K562
SNB-78 = tested on: SNB-78
SK-MEL-2 = tested on: SK-MEL-2
NCI-H460 = tested on: NCI-H460
OVCAR-4 = tested on: OVCAR-4
EKVX = tested on: EKVX
SF-539 = tested on: SF-539
HOP-62 = tested on: HOP-62
HOP-92 = tested on: HOP-92
SNB-75 = tested on: SNB-75
COLO 205 = tested on: COLO 205
HCT-15 = tested on: HCT-15
Malme-3M = tested on: Malme-3M
MDA-N = tested on: MDA-N
BT-549 = tested on: BT-549
A498 = tested on: A498
MDA-MB-435 = tested on: MDA-MB-435

SMILES	GI50 (U-251)	GI50 (CAKI-1)	GI50 (HCC 2998)	GI50 (K562)	GI50 (SNB-78)	GI50 (SK-MEL-2)	GI50 (NCI-H460)	GI50 (OVCAR-4)	GI50 (EKVX)	GI50 (SF-539)	GI50 (HOP-62)	GI50 (HOP-92)	GI50 (SNB-75)	GI50 (COLO 205)	GI50 (HCT-15)	GI50 (Malme-3M)	GI50 (MDA-N)	GI50 (BT-549)	GI50 (A498)	GI50 (MDA-MB-435)
O=C(CCCCCCCCCCc1ccccc1)C1=C(O)CCCC1=O	29.2 µM (inactive)	7.85 µM (inactive)	35.9 µM (inactive)	19.8 µM (inactive)	52.4 µM (inactive)	23 µM (inactive)	18.9 µM (inactive)	32.7 µM (inactive)	41.3 µM (inactive)	41.9 µM (inactive)	43.7 µM (inactive)	11.3 µM (inactive)	32.6 µM (inactive)	17.6 µM (inactive)	–	–	–	–	–	–
C=C1CCCC(C)(C)C1CCC1(C)CCC(C(C)C(=O)OC)OO1 (stereo unspecified)	2.94 µM (inactive)	0.383 µM (active)	4.37 µM (inactive)	8.89 µM (inactive)	–	10.8 µM (inactive)	0.908 µM (active)	4.9 µM (inactive)	7.91 µM (inactive)	6.3 µM (inactive)	0.706 µM (active)	0.764 µM (active)	3.15 µM (inactive)	4.92 µM (inactive)	15.5 µM	> 22.9 µM (inactive)	3.73 µM (inactive)	4.9 µM (inactive)	5.87 µM (inactive)	4.05 µM (inactive)
C#CCn1ncc2c(SCc3ccccc3)ncnc21	> 100 µM (inactive)	57.8 µM (inactive)	> 100 µM (inactive)	52.7 µM (inactive)	–	> 100 µM (inactive)	> 100 µM (inactive)	> 100 µM (inactive)	97.7 µM (inactive)	> 100 µM (inactive)	> 100 µM (inactive)	> 100 µM (inactive)	40.8 µM (inactive)	> 100 µM (inactive)	> 100 µM	> 100 µM (inactive)	> 100 µM (inactive)	> 100 µM (inactive)	> 100 µM (inactive)	99.5 µM (inactive)
Nc1ccccc1/C(O)=C1/CCOC1=O	> 100 µM (inactive)	> 100 µM (inactive)	–	> 100 µM (inactive)	> 100 µM (inactive)	> 100 µM (inactive)	> 100 µM (inactive)	> 100 µM (inactive)	> 100 µM (inactive)	–	> 100 µM (inactive)	> 100 µM (inactive)	> 100 µM (inactive)	> 100 µM (inactive)	–	> 100 µM (inactive)	–	–	> 100 µM (inactive)	–
